Data taken from a melting point compilation (Tetko et al.; mined from patent text by program, amines drawn as free bases though some values may be those of a salt).

Row | melting point [°C] | SMILES
1 | 103 to 105 | CN(C)C(=O)CCc1ccc(OCCN(C)c2nc3ccccc3o2)cc1
2 | 184 to 185 | O=C(O)c1c(OCc2cccc(OCc3ccc4ccccc4n3)c2)cccc1C(F)(F)F
3 | 238 to 239 | CN(C)S(=O)(=O)c1cc(S(=O)(=O)N(C)C)c(C(Cl)=C(Cl)Cl)cc1N
4 | 220 to 221 | CN1CCN(c2ccc(N/C=C3\C(=O)NC(=O)c4ccc(I)cc43)cc2)CC1
5 | 154 to 155 | CC(C)C(NS(=O)(=O)c1ccccc1)C(=O)NO (centres undefined)
6 | 251 | Cc1ccc(C(=O)Oc2ccc3c(OC(=O)c4ccc(C)c(O)c4)c4ccccc4cc3c2OC(=O)c2ccc(C)c(O)c2)cc1O
7 | > 300 | CC(C)(C)Nc1c(NCc2cc3cc([N+](=O)[O-])ccc3o2)c(=O)c1=O
8 | 80 to 82 | O=Cc1cnn(-c2cccc(C(F)(F)F)c2)c1
9 | 144 | CC(C)(Oc1cccc(C(=O)c2ccc(Cl)cc2)c1)C(=O)O
10 | 184 to 186 | O=C(NO)C(CCN1C(=O)c2ccccc2C1=O)NS(=O)(=O)c1ccc(-c2ccc(Cl)cc2)cc1 (centres undefined)
11 | 56 to 57 | COCOc1cccc2cccc(C=O)c12
12 | 153 to 158 | Cc1oncc1C(=O)Nc1ccc(-n2nc(C3CC3)cc2C2CC2)cc1
13 | 87 to 88 | CCC(COC)(OC)c1cncc(O)c1 (centres undefined)
14 | 117 | COc1ccc(C)cc1C(CCO)c1cc(C)ccc1OC
15 | 157 to 162 | O=[N+]([O-])C(=CC(O)C(=C1NCCN1Cc1ccc(Cl)nc1)[N+](=O)[O-])C1=NCCN1Cc1ccc(Cl)nc1 (centres undefined)
16 | 206 to 218 | Cn1c(=O)[nH]c(N)c(NCc2ccccc2)c1=O
17 | 163 to 164 | CCC(C)(O/N=C(\C(=O)O)c1csc(NC(c2ccccc2)(c2ccccc2)c2ccccc2)n1)C(=O)OC(C)(C)C (centres undefined)
18 | 150 to 151 | Cc1c(C(=O)O)ccc(S(C)(=O)=O)c1-c1ccon1
19 | 71 to 73 | O=C(NCCCO)c1ccc[nH]1
20 | 258 to 260 | Nc1nccc2cc(O)ccc12
21 | 236 to 239 | Cc1occc1Sc1cncc2sc(C(N)=O)cc12
22 | 93 | CCCCCCCC(=O)N(C)Cc1ccc(OCc2ccccc2)c(-c2ccc(C=C3SC(=O)NC3=O)cc2)c1
23 | 100 to 101 | CCOC(=O)C1CCc2c([nH]c3ccc(N(C)C)cc23)C1 (centres undefined)

Row | melting point [°C] | SMILES
24 | 215 to 220 | CN(C)c1ccc(C(=CC(C=C(c2ccc(N(C)C)cc2)c2ccc(N(C)C)cc2)c2ccc(N(C)C)cc2)c2ccc(N(C)C)cc2)cc1
25 | 76 | Cc1ccc(C=Cc2ccccc2)cc1C
26 | 235 to 237 | Nc1nc(CCc2ccccc2)nc2nc(-c3ccco3)nn12
27 | > 250 | O=C(Nc1nccs1)c1nc(-c2cccc3ccccc23)[nH]c1-c1ccccc1
28 | 106 to 110 | CC(O[Si](C)(C)C(C)(C)C)C1C(=O)NC1C1CCCC(OCCF)C1O (centres undefined)
29 | 250 to 253 | CC(=O)Oc1c(C)c(C)c2c(nc(COc3ccc(CC4SC(=O)NC4=O)cc3)n2C)c1C (centres undefined)
30 | 111 | COc1ccccc1C=CC=CC(=O)c1cc(OC)c(OC)c(OC)c1
31 | 168 to 169 | COc1ccccc1N1CCc2c(C)nc3c(OC)cccc3c21
32 | 123 to 126 | CCN1C(=O)C(C)(C)CCc2c1ccc(Nc1ncc(Cl)c(N[C@@H]3CCCC[C@H]3NS(C)(=O)=O)n1)c2OC
33 | 201 to 202 | COc1ccc2nc(Cl)c(C#N)cc2c1
34 | 129 to 131 | O=C(NC(c1ccccc1)C(O)C(=O)OCc1ccccc1)c1ccccc1 (centres undefined)
35 | 254 to 257 | O=C(O)c1ccc(-c2ccc3nnn(Cc4ccc5ncccc5c4)c3n2)cc1F
36 | 137 to 139 | Cc1ccc(S(=O)(=O)NC2CCCCC2NC(=O)OC(C)(C)C)cc1 (centres undefined)
37 | 192 to 194 | CCOC(=O)CN1CSCCC(N2C(=O)c3ccccc3C2=O)C1=O (centres undefined)
38 | 146 to 148 | CC(C)(C)c1cc(CCC(=O)NCCNc2ccc(C#N)cc2)cc(C(C)(C)C)c1O
39 | 310 to 320 | Cc1nc2c([nH]c(=O)c3ccccc32)s1
40 | 114 to 116 | CCCc1cc(=O)oc2cc(OCCCN3CCN(c4ccccc4)CC3)ccc12
41 | 64 to 66 | CC1(C)Oc2ccc(OC(F)(F)F)cc2[C@@H](NC(=O)c2ccc(Cl)cc2[N+](=O)[O-])[C@@H]1O
42 | 243 to 245 | NS(=O)(=O)c1ccc(C2(c3nc4c(F)cccc4s3)C=C(C(F)F)NN2)cc1 (centres undefined)
43 | 179 to 181 | COc1ccc(C(=O)NNC(C)=N)cc1
44 | 70 to 72 | COC(=O)C1=C(C)NC(C)=C(C(=O)OCCN2CCN(C(c3ccccc3)c3ccccc3)CC2)C1c1cccc(C(F)(F)F)c1 (centres undefined)
45 | 116 | CC(C)c1ccccc1S(=O)(=O)c1ccc(OCCCNC(C)(C)C)cc1
46 | 190 | NC1NC=CN1c1ccncc1 (centres undefined)

Row | melting point [°C] | SMILES
47 | 156 | CCOc1ncc(S(=O)(=O)N2CCN(CC)CC2)cc1C(=O)Nc1c(C(N)=O)nn(CCOC)c1CC
48 | > 300 | Cc1cc2c(c3c1NC(=O)CC3)O[C@@H](CN)[C@H]2C (racemic)
49 | 130 to 133 | COc1ccc2c3c(ccc2c1)-c1ccccc1C3c1ccc(OCCN2CCCCC2)cc1 (centres undefined)
50 | 56 to 58 | Cc1cc(C(=O)OC(C)(C)C)ccc1[N+](=O)[O-]
51 | 100 to 101 | N#CC1OC12CCN(C(=O)c1ccc(F)c(Cl)c1)CC2 (centres undefined)
52 | 267 to 268 | Cc1ccc2nc(NC(=O)c3ccc(C(C)(C)CCc4noc(=O)[nH]4)cc3)cn2c1
53 | 49 to 53 | CC(C)=NNC(=O)NCCCN(C)C
54 | 69.5 to 70.1 | CCCCOc1ccccc1C(=O)C=Cc1cc(OC)cc(OC)c1
55 | 209 to 210 | O=C(Nc1nnn(CC(F)(F)F)n1)C1c2ccccc2Oc2ccccc21
56 | 158 to 160 | CCn1ncc2c(NCC3CCCCC3)c3cc(Br)ccc3nc21
57 | 186 to 187 | CC1=C(C(=O)O)N2C(=O)C(=NSc3ccc(C)cc3)C2SC1 (centres undefined)
58 | 150 to 151 | C[C@]1(CN2CCN(S(=O)(=O)CCCc3ccc(Cl)cc3)CC2)Cn2cc([N+](=O)[O-])nc2O1
59 | 82.5 to 83 | CCCOC(=O)C1=NN(c2ccccc2)C(C(=O)OCCC)=NN1c1ccccc1
60 | 232 to 233 | CCN(CC)c1ccc(-c2nnc(Nc3ccc(Br)c(Cl)c3)s2)cc1
61 | 115 | CC(C)(Cc1ccccc1)C(O)CCN1C(=O)NC(=O)C1CCCCCCC(=O)O (centres undefined)
62 | 150 to 152 | CC(C)(C)OC(=O)NCc1ccc2c(Br)c(O)ccc2c1
63 | 81 to 83 | CCCCCc1c(C(C)C)nc(C(C)C)c(CCO)c1-c1ccc(F)cc1
64 | 161 to 163 | COc1nc2cc(Cl)c(Cl)c(CS(C)(=O)=O)c2nc1OC
65 | 178 to 183 | N#Cc1cnn(-c2c(Cl)cc(C(F)(F)F)cc2Cl)c1C=CC(=O)NS(=O)(=O)Cc1ccccc1
66 | 207 to 209 | CCCNC(=O)CN1C(=O)C2(COc3cc4c(cc32)CCO4)c2ccccc21 (centres undefined)
67 | 174 to 175 | CCCCc1nc2c(N)nc3cccnc3c2n1CCCOC(C)C

Row | SMILES | melting point [°C]
68 | O=C(O)CCSC1c2ccccc2COc2ccc(OCc3ccc4cc(F)ccc4n3)cc21 (centres undefined) | 167 to 171
69 | CC1c2cc(C(C)(C)C)cc(C(C)(C)C)c2OP(OCCNC(C)(C)C)Oc2c1cc(C(C)(C)C)cc2C(C)(C)C (centres undefined) | 174 to 175
